In assay [1] the test system is panel of 114 enzyme and receptor binding assays. The experiment in a line: Off-target panel of 114 enzyme and receptor-binding assays. The settings on record: for Off-target activity: 10 μM, panel of 114 assays; for IC50: tested at 10 µM, 114 assays, read-out: IC50 in all off-target assays. On the procedure:
MK-8527 and MK-8527-TP were evaluated at 10 µM final concentration at Eurofins Panlabs (Taipei, Taiwan) for activity against a panel of 114 enzyme, radioligand binding, and cellular assays, including 70 G-protein coupled receptor, 13 ion channel, 7 kinase, 7 nuclear hormone receptor, 6 transporter, 4 protease, 2 neurotransmitter metabolism, 2 lipid metabolism, 2 oxidoreductase, and 1 phosphodiesterase assays.

Assay [2] has as its target T1, HIV-1 RT (Human immunodeficiency virus type 1 group M subtype B, UniProt P04585).
T1 construct: Full-length WT RT protein was expressed in Escherichia coli BL21(DE3) cells; made in house; host or cells: Escherichia coli BL21(DE3)
The experiment in a line: HIV-1 RT biochemical (ECL) assay. The settings on record: purified recombinant RT, n = 8; read-out: IC50, RNA-dependent DNA polymerization. The procedure:
Full-length WT RT protein was expressed in Escherichia coli BL21(DE3) cells and purified as described previously. The electrochemiluminescence (ECL) RT biochemical assay was performed based on the previously described protocol.
Briefly, the heterodimeric nucleic acid substrate used in the HIV-1 RT polymerase reactions was generated by annealing biotinylated DNA primer to a 500-nucleotide RNA template. The HIV-1 RT enzyme (final concentration of 50 pM) was combined with an inhibitor or DMSO (10% DMSO in the final reaction mixture) in assay buffer containing 62.5 mM Tris-HCl, pH 7.8, 1.25 mM dithiothreitol, 7.5 mM MgCl2, 100 mM KCl, 0.03% 3-[(3-cholamidopropyl)-dimethylammonio]-1-propanesulfonate, and 0.125 mM ethylene glycol tetraacetic acid). This mixture was preincubated for 30 min at room temperature in microtiter plates. The polymerization reaction was initiated by the addition of template:primer substrate (final concentration, 16.6 nM), and dNTPs (final concentrations were 2 μM for deoxycytidine triphosphate [dCTP], deoxyguanosine triphosphate [dGTP], and dATP and 66.6 nM for ruthenylated deoxyuridine triphosphate [Ru-dUTP]). […] The mixtures were incubated at room temperature for 60 min prior to the quantification of the reaction product via an ECL 6000 imager instrument. […]

For assay [3], the system named is HIV-1. The experiment in a line: microbe, parasite or virus in culture.
Assay [4] deals with HIV-1. The experiment in a line: microbe, parasite or virus in culture. The settings on record: Human immunodeficiency virus 1, PBMC. The procedure:
IC50 values were determined, and a persistence ratio was calculated for each compound. GFP, green fluorescent protein; hpi, hours post-infection; IC50, half maximal inhibitory concentration.
Assay media in each well were then evacuated and the cells resuspended using the gentle setting on the BlueWasher (BlueCatBio; Lebanon, NH, USA). Centrifugation and wash steps were repeated to ensure removal of extracellular compound.
MT4-GFP cells were infected with WT R8 virus, and PBMCs were infected with pNLG1-P2A-GFP. […] IC50 values were determined by nonlinear 4-parameter curve fitting of the data. A persistence ratio was calculated for each compound by dividing the IC50 from variable B (IC50B) by the IC50 from variable A (IC50A).

In assay [5] the test system is HIV-2ROD. The experiment in a line: Cytoprotection assay in CEM-SS cells, HIV-2. The format is cell-based. The settings on record: Human immunodeficiency virus 2, 144 h, 6 days, read-out: Antiviral potency as IC50, HIV-2 – CEM-SS cells. The procedure: (§1) The antiviral activity of MK-8527 against HIV-1 and HIV-2 was determined in a cytoprotection assay in CEM-SS cells at ImQuest BioSciences (Fredrick, MD, USA). Briefly, CEM-SS cells (National Institute of Health AIDS Research and Reference Reagent Program) were passaged in RPMI 1640 supplemented with 10% heat-inactivated FBS, 2 mM L-glutamine, 100 U/mL penicillin and 100 µg/mL streptomycin prior to use in the antiviral assay. On the day preceding the assay, the cells were split 1:2 to ensure they were in an exponential growth phase at the time of infection. The cells were resuspended at 2.5 × 10^3 cells per well in cell culture medium and added to the drug-containing microtiter plates at 50 µL per well. MK-8527 was tested in triplicate for each experiment, with 12 test concentrations added at 100 µL per well.
(§2) Lymphocyte-tropic virus strains HIV-1IIIB or HIV-2ROD (NIH AIDS Research and Reference Reagent Program) were diluted into tissue culture medium such that the amount of virus added to each well in a volume of […] corresponded to the amount determined to yield 85% to 95% cell killing in the untreated virus control wells at 6–7 days. Virus was added immediately after cells were added to the 96-well microtiter plates.
(§3) The IC50 for MK-8527 antiviral activity was determined using 4-parameter curve fit calculations.

The subject of assay [6] is HIV-1IIIB. The experiment in a line: Cytoprotection assay in CEM-SS cells, HIV-1. It is filed as cell-based. The settings on record: Human immunodeficiency virus 1, 144 h, 6 days, read-out: Antiviral potency as IC50, HIV-1 – CEM-SS cells. The procedure: as §1, §2, §3

From paper PMC12380353, “MK-8527 is a novel inhibitor of HIV-1 reverse transcriptase translocation with potential for extended-duration dosing” (PLOS Biology, 2025) come the findings set out here.

Read-outs that look alike come from different tables or passages of the source.

Take `C#C[C@]1(COP(=O)(O)OP(=O)(O)OP(=O)(O)O)O[C@@H](n2ccc3c(N)nc(Cl)nc32)C[C@@H]1O` [MK-8527-TP]: in assay [1], the Off-target activity entry was “no off-target activities”. For the same molecule, the IC50 in assay [1] is above 10000 nM; in assay [2], 813 ± 238 nM.
For `C#C[C@]1(CO)O[C@@H](n2ccc3c(N)nc(Cl)nc32)C[C@@H]1O` [Compound 12, (2R,3S,5R)-5-(4-amino-2-chloro-7H-pyrrolo[2,3-d]pyrimidin-7-yl)-2-ethynyl-2-(hydroxymethyl)tetrahydrofuran-3-ol], the IC50 worked out at 223 ± 104 nM in assay [3] (Human immunodeficiency virus 1, 48 h, read-out: Persistence assay IC50B, MT4-GFP cells); 7.2 ± 2.3 nM in assay [3] (Human immunodeficiency virus 1, read-out: Persistence assay IC50A, MT4-GFP cells); 18.1 ± 4.8 nM in assay [4] (48 h, read-out: Persistence assay IC50B, PBMCs); 1.2 ± 0.2 nM in assay [4] (read-out: Persistence assay IC50A, PBMCs); 0.007 nM in assay [5]; 0.14 nM in assay [6]. Further, in assay [1], the IC50 is above 10000 nM. For the same molecule, the Off-target activity entry in assay [1] is given as “no off-target activities”.
